According to publication PMC6320955, “Self-Dissolving Microneedle Arrays for Transdermal Absorption Enhancement of Human Parathyroid Hormone (1-34)” (Pharmaceutics, 2018):

Legend:
[1] = In vivo transdermal delivery of PTH: plasma pharmacokinetics; design: species or system Wistar rats; conditions: sc, 20 ug/animal, rat, subcutaneous injection of PTH solution, 20 µg/rat, ELISA, mean ± SD of three rats
Protocol: The abdominal skin of Wistar rats was shaved while the animals were placed under pentobarbital anesthesia (52 mg/kg as pentobarbital sodium salt). PTH-loaded MNs (20 µg/rat) were then applied to the abdominal skin of rats. The dosage of PTH in MNs was calculated based on the content of PTH in the needle part of MNs. Separately, PTH solution (20 µg/rat) was subcutaneously injected into the backs of rats. At pre-determined intervals, 0.3 mL of blood was withdrawn from the jugular veins while the animals were placed under pentobarbital anesthesia (52 mg/kg as pentobarbital sodium salt) and collected in tubes containing 0.3 mg of EDTA and 150 KIU of aprotinin. The collected blood was then centrifuged for 15 min at 4000 rpm to obtain plasma. […] The peak PTH plasma concentration (Cmax) and time to reach Cmax (Tmax) were determined directly from the plasma concentration–time profiles. Area under the plasma concentration-time curve (AUC) after transdermal administration or subcutaneous injection was calculated by the trapezoidal formula and extrapolation to infinite time based on monoexponential equation [26].
The PTH in the plasma sample was extracted and purified using SEP-columns. […] Concentrations of PTH were determined using the PTH (1-34) ELISA kit (PTH (1-34), Human, EIA Kit, High Sensitivity, Peninsula Laboratories International, Inc. San Carlos, CA, USA).

[2] = tested on: rats with ovariectomy (OVX)-induced osteoporosis; assay: Therapeutic potential in post-menopausal rat model of osteoporosis (OVX); format: in vivo, female Sprague-Dawley rats; conditions: subcutaneous injection of PTH 20 µg/rat, hematoxylin and eosin
Protocol: The post-menopausal rat model of osteoporosis was established by performing ovariectomies (OVX) of female Sprague-Dawley rats. Four weeks following OVX, PTH-loaded MNs (20 µg/rat) were applied to the rats twice a week, for a period of 4 weeks. Separately, PTH (20 µg/rat) was subcutaneously injected into the rats. Eight weeks after OVX, rats were euthanized, and the tibias were excised and fixed in 4% paraformaldehyde in PBS. The fixed tibias were then embedded in paraffin and sectioned by microtome. The sections of tibias were subsequently stained with hematoxylin and eosin and then used for histological analysis.

[3] = Storage stability of PTH in MNs fabricated from HA and in PBS solution; format: physicochemical; conditions: PTH dissolved in PBS, PTH (1-34) ELISA, mean of three experiments
Protocol: PTH-loaded MNs were packaged into an aluminum sachet purged with nitrogen and stored at −20 °C, 4 °C, or at room temperature (15–20 °C). PTH solution dissolved in PBS was kept at the same temperatures as the control. Following one month of storage, the needles were separated from the back layers of MNs and dissolved in PBS. The actual amounts of PTH present in the needle parts of the MNs were measured using the PTH (1-34) ELISA kit (PTH (1-34), Human, EIA Kit, High Sensitivity, Peninsula Laboratories International, Inc. San Carlos, CA, USA).

Cmax ([1]; Wistar): 15.1 ± 4.6 ng/mL | Tmax ([1]; in vivo): 30 min | initial PTH retained in the solution after storage ([3]; stored one month at 4 °C): ~84% | initial PTH retained in the solution after storage ([3]; stored one month at room temperature (15–20 °C)): ~13% | initial PTH retained in the solution after storage ([3]; stored one month at −20 °C): approximately 98%
SMILES: CC[C@H](C)[C@H](NC(=O)[C@H](CCC(=O)O)NC(=O)[C@H](CO)NC(=O)[C@@H](NC(=O)[C@@H](N)CO)C(C)C)C(=O)N[C@@H](CCC(N)=O)C(=O)N[C@@H](CC(C)C)C(=O)N[C@@H](CCSC)C(=O)N[C@@H](Cc1c[nH]cn1)C(=O)N[C@@H](CC(N)=O)C(=O)N[C@@H](CC(C)C)C(=O)NCC(=O)N[C@@H](CCCCN)C(=O)N[C@@H](Cc1c[nH]cn1)C(=O)N[C@@H](CC(C)C)C(=O)N[C@@H](CC(N)=O)C(=O)N[C@@H](CO)C(=O)N[C@@H](CCSC)C(=O)N[C@@H](CCC(=O)O)C(=O)N[C@@H](CCCNC(=N)N)C(=O)N[C@H](C(=O)N[C@@H](CCC(=O)O)C(=O)N[C@@H](Cc1c[nH]c2ccccc12)C(=O)N[C@@H](CC(C)C)C(=O)N[C@@H](CCCNC(=N)N)C(=O)N[C@@H](CCCCN)C(=O)N[C@@H](CCCCN)C(=O)N[C@@H](CC(C)C)C(=O)N[C@@H](CCC(N)=O)C(=O)N[C@@H](CC(=O)O)C(=O)N[C@H](C(=O)N[C@@H](Cc1c[nH]cn1)C(=O)N[C@@H](CC(N)=O)C(=O)N[C@@H](Cc1ccccc1)C(=O)O)C(C)C)C(C)C [PTH, Human parathyroid hormone (1-34)]
effect on decrease in bone matrix density (tibia histology) [2]: effectively prevented
